Results as given in ChEMBL document CHEMBL3351878, “Carbonic Anhydrase Inhibition with Benzenesulfonamides and Tetrafluorobenzenesulfonamides Obtained via Click Chemistry” (ACS Med Chem Lett, 2014).
pKi: −log10 of the molar value.

What was measured:
Carbonic anhydrase 1 = Carbonic anhydrase 1 (Homo sapiens, UniProt P00915); test: Inhibition of recombinant human carbonic anhydrase 1 preincubated for 15 mins by stopped-flow CO2 hydrase Assay
Carbonic anhydrase 12 = Carbonic anhydrase 12 (Homo sapiens, UniProt O43570)
Carbonic anhydrase 9 = Carbonic anhydrase 9 (Homo sapiens, UniProt Q16790)

Carbonic anhydrase 1, sequence (P00915 whole entry): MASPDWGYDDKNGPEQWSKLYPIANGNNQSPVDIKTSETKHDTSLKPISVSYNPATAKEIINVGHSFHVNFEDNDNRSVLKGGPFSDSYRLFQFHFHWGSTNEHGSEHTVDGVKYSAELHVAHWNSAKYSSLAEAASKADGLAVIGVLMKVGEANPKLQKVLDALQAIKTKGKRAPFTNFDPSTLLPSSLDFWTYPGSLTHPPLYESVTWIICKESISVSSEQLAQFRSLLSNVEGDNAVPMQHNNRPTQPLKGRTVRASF
Carbonic anhydrase 12, sequence (O43570 whole entry): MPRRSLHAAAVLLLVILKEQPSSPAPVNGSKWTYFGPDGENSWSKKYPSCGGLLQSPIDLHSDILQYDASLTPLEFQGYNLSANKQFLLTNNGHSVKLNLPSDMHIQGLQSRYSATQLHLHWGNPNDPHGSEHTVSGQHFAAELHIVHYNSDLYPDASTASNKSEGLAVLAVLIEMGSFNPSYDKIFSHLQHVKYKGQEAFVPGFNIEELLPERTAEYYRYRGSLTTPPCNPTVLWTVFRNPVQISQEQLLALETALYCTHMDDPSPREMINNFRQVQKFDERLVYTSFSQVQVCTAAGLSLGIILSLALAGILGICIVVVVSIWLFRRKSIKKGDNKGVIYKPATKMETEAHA

| pKi (Carbonic anhydrase 1) | pKi (Carbonic anhydrase 12) | pKi (Carbonic anhydrase 9) | Compound |
| --- | --- | --- | --- |
| 6.43 | 8.44 |  | Cc1ccc(-c2cn(-c3ccc(S(N)(=O)=O)cc3)nn2)cc1 |
|  |  | 7.41 | CCCCCc1ccc(-c2cn(-c3c(F)c(F)c(S(N)(=O)=O)c(F)c3F)nn2)cc1 |
|  |  | 8.30 | CCCCCc1ccc(-c2cn(-c3ccc(S(N)(=O)=O)cc3)nn2)cc1 |
|  |  | 8.21 | NS(=O)(=O)c1ccc(-n2cc(CCCCl)nn2)cc1 |
|  |  | 7.98 | CC(C)(C)OC(=O)NCc1cn(-c2ccc(S(N)(=O)=O)cc2)nn1 |
|  |  | 7.92 | NCc1cn(-c2ccc(S(N)(=O)=O)cc2)nn1 |
|  |  | 8.16 | NS(=O)(=O)c1ccc(-n2cc(CCBr)nn2)cc1 |
|  |  | 8.35 | NS(=O)(=O)c1c(F)c(F)c(-n2cc(CCCCCl)nn2)c(F)c1F |
|  |  | 8.27 | NS(=O)(=O)c1ccc(-n2cc(CCCCCl)nn2)cc1 |
| 6.41 | 8.22 | 7.59 | NS(=O)(=O)c1ccc(-n2cc(-c3ccccc3)nn2)cc1 |
